# Measured values taken from publication PMC6143478, “Lipophilic activated ester prodrug approach for drug delivery to the intestinal lymphatic system” (Journal of Controlled Release, 2018).
# Where two headings read alike, the source gives them in different places.
# Experiments:
# [1] = Biodistribution to mesenteric lymph nodes (MLN) and lymph following oral administration in rats; assay type: in vivo; conditions: BEX analyte, dose equivalent to 10 mg/kg BEX, rat, in words
# Description: (§1) The protocols for pharmacokinetic and biodistribution experiments in this study were reviewed and approved by the University of Nottingham Ethical Review Committee in accordance with the Animals [Scientific Procedures] Act 1986. Male Sprague Dawley rats (Charles River Laboratories, UK) weighing 350–380 g were used. The animals were housed in the Bio Support Unit, University of Nottingham. Continuous lymph collection was performed according to a protocol approved by the Institutional Animal Care and Use Committee at Rutgers, The State University of New Jersey. Male Sprague Dawley rats (Envigo, Inc., NJ, USA) weighing 300–350 g were used for the continuous lymph collection. Animals were allowed free access to food and water and were acclimatised for at least 6 days prior to any procedures at both institutions in a controlled-temperature environment with 12 h light/dark cycles.
# Formulations were prepared as described in the above pharmacokinetic study and were delivered by an oral gavage. Animals were euthanised at pre-determined time points. Blood was collected from the posterior vena cava and lymph samples were taken from the mesenteric lymph duct. MLNs were dissected and collected as previously described. The MLNs were isolated from surrounding tissue with care not to compromise the integrity of the lymph nodes. The MLNs were homogenised (POLYTRON® PT 10–35 GT, Kinematica AG, Luzern, Switzerland) with 10 mg/mL NaF in water (1,2, w/v) on an ice bath prior to sample preparation for HPLC analysis.
# (§2) A combination of protein precipitation and liquid-liquid extraction was applied to samples prior to HPLC injection. To 100 μL sample, 300 μL of acetonitrile was added for protein precipitation and then 300 μL of pH modifier was added when necessary (Supplementary Material Table S2). […] The organic layer was separated and evaporated under N2 gas. Reconstitution solvent (100 μL) was used as detailed in Supplementary Material Table S2 and 40 μL was injected into the HPLC-UV system. […] Therefore, storage and preparation of all samples were performed within the time frame and conditions of confirmed stability.
# (§3) The HPLC-UV system consisting of a separation module (Waters Alliance 2695) equipped with a UV detector (Waters 996) was used for analysis. Samples in the autosampler were maintained at 4 °C and the column at 40 °C. The stationary and mobile phases were used as specified in Supplementary Material Table S2. BEX and its prodrugs were detected at 259 nm and RA and its prodrugs at 357 nm.
# VAL cells = test: Cell growth inhibition MTT assay, VAL; assay type: cell-based; conditions: 72 h, RA 0.400 μM (0.625% × GI50 of RA)
# Description: (§4) DLBCL cell lines of DOHH2 and VAL were obtained from the Gene Regulation and RNA Biology group in University of Nottingham. Cell growth inhibition was assessed by MTT assay with a minor modification from previously reported methods [[25], [26], [27]]. Cells were seeded at a density of 2000 cells/well and allowed to adapt overnight. Test compounds were serial-diluted with dimethyl sulfoxide (DMSO) and spiked on the next day to yield 0.1% (v/v) DMSO. Control wells were treated with 0.1% DMSO vehicle alone. At the time of drug addition, separately prepared wells were processed for Tzero readings as previously described. The treated cells were incubated further for 72 h at 37 °C and processed for cell growth assessments.
# (§5) Assessment of statistical significance of differences between two groups was conducted by means of two-tailed unpaired t-test. Statistical significance among three or more groups was assessed by means of a one-way ANOVA followed by Tukey's multiple comparisons test. Statistical significance was declared when a p-value was lower than 0.05. […] Pharmacokinetic parameters were calculated by non-compartmental analysis using Phoenix WinNonlin 6.3 software (Pharsight, Mountain View, CA, USA).
# (§6) The anticancer effects of BEX and RA were assessed by MTT assay using DLBCL cell lines. The GI50 of each drug was firstly determined in each cell line. […]
# [2] = Plasma pharmacokinetics following oral administration in rats; assay type: in vivo, rat; conditions: for AUC(0-inf) / AUC(0-t) / half-life / Cmax: male, Sprague Dawley, rat, plasma, po, 10 mg/kg, dose equivalent to 10 mg/kg BEX; for AUC(0-inf) / AUC(0-t) / half-life: BEX in plasma; for Cmax: Cmax of BEX in plasma, read-out: C0 or Cmax; for Foral: oral bioavailability of BEX, calculated on AUC0→t after i.v. BEX 2.5 mg/kg [33]
# Description: as §1
# Jugular vein cannulation surgery procedures were conducted under general anaesthesia for blood sampling. The animals were allowed two days to recover following surgery and were fasted up to 12 h prior to experiments with free access to drinking water. Formulations were prepared at concentrations equivalent to 2.5 mg/mL and 10 mg/mL of active drug for intravenous and oral administration, respectively. Solutions of the tested compounds in PEG400 were used as the dosing vehicle for intravenous administration. For oral administration, all prodrugs were administered as a solution in sesame oil to stimulate intestinal lymphatic transport. For oral administration of BEX and RA, oral gavage of sesame oil was administered prior to administration of BEX or RA solution in PEG400 due to low solubility of the two compounds in TG. In the lipid-free group BEX was administered orally formulated as a solution in PEG400. The formulations were administered by an oral gavage for oral administration or via the jugular vein cannula followed by 0.3 mL heparinised saline (50 IU/mL) for intravenous injection. Blood samples of 250 μL volume were collected from the cannula at pre-determined time points following administration. NaF (10 mg/mL) was used as an anticoagulant and inhibitor of esterase activity. Blood samples were centrifuged at 3000 g for 10 min to obtain plasma.
# as §2, §3
# Assessment of statistical significance of differences between two groups was conducted by means of two-tailed unpaired t-test. Statistical significance among three or more groups was assessed by means of a one-way ANOVA followed by Tukey's multiple comparisons test. Statistical significance was declared when a p-value was lower than 0.05. The analyses were performed on GraphPad Prism version 7.01 (GraphPad Software, Inc., La Jolla, CA, USA). The concentrations that inhibited cell growth by 50% (GI50) were also calculated using GraphPad Prism and isobole plots were presented following a previously reported method to assess synergy between BEX and RA [28]. […]
# DOHH2 cells = test: Cell growth inhibition MTT assay, DOHH2; assay type: cell-based; conditions: 72 h, RA 0.425 μM (0.625% × GI50 of RA)
# Description: as §4, §5, §6
# [3] = TG solubility measurement in sesame oil; assay type: physicochemical; conditions: oil or lipid, thermodynamic from solid, 37 °C
# Description: Compounds were dissolved in fresh aliquots of sesame oil in excessive amounts in glass vials (in triplicate) and stirred using a magnetic stirring bar at 37 °C for 72 h. The mixture was then filtered by centrifugation in a Costar Spin-X Centrifuge Tube (Fisher Scientific, Loughborough, UK) at 2400 g for 5 min. The filtrates were analysed for concentration of the tested compounds by means of HPLC.
# human chylomicrons (CM) = test: Ex vivo association with human plasma-derived chylomicrons; assay type: in vitro ADME; conditions: in words
# Excerpt: The protocol for preparation of human plasma-derived CM emulsion was approved by the Faculty of Medicine and Health Sciences Research Ethics Committee, Queens Medical Centre, Nottingham University Hospitals (BT12102015 CBS SoP). Healthy male volunteers of 19–40 years old and with body mass index of 18.5–25.0 were enrolled in the study after providing informed consent. The participants were excluded if any medication was used within one week prior to enrolment. On the morning of the study, participants received a high-fat meal (equivalent to a full English breakfast). Between 3 and 4 h following breakfast, 30 mL of blood was collected using heparinised tubes (Vacutainer® Blood Collection Tubes) and centrifuged (800 g, 10 min, 15 °C) to obtain plasma.
# CM separation was performed as previously reported with minor modifications. Briefly, KBr (0.57 g) was mixed with 4 mL of plasma to yield density of 1.1 g/mL. PBS with densities of 1.006, 1.019, and 1.063 g/mL were prepared by adding appropriate amounts of KBr. These PBS of different densities were layered on top of the plasma to build density gradient layers in polyallomer ultracentrifuge tubes. The samples were then centrifuged at 268,350 g for 35 min at 15 °C using an ultracentrifuge (SORVALL® TH-641 Rotor, Thermo Fisher Scientific, UK). Following ultracentrifugation, approximately 1 mL of the upper layer containing CM was collected. TG concentration of CM emulsion was assessed using the TG enzymatic kit (Sigma Aldrich, Dorset, UK). TG concentration of the emulsion was adjusted to 100 mg/dL by diluting with PBS of 1.006 g/mL density. The CM emulsion was stored at 4 °C until the association assay (˂24 h).
# The association of the compounds with artificial lipid particle emulsion and human CM was assessed using previously reported methodology with minor modifications. Briefly, 1 mL of artificial lipid particle or CM emulsions (TG concentration 100 mg/dL) was used for the association assay. The emulsion was spiked with stock solutions of tested compounds (in acetonitrile) to give a final concentration of 1.755 μM. The reaction mixtures were incubated at 37 °C for 1 h with magnetic stirring at 300 rpm. Following the incubation, density gradient ultracentrifugation was applied as described above to isolate the artificial lipid particles or CM associated with the tested compounds from the rest of the experimental medium. All experiments were conducted in quintuplicates or above.
Structure (SMILES),"concentrations of BEX in intestinal lymphatics (MLNs, lymph) relative to plasma [1]",cell growth inhibition by BEX in conjunction with RA (VAL cells),AUC(0-inf) ([2]; p.o. (lipid-based)),AUC(0-t) ([2]; p.o. (lipid-based)),half-life ([2]; p.o. (lipid-based)),AUC(0-t) ([2]; p.o. (lipid-free)),half-life ([2]; p.o. (lipid-free)),"AUC(0-inf) ([2]; p.o. (lipid-free, PEG400))",Cmax ([2]; p.o. (lipid-based)),Cmax ([2]; p.o. (lipid-free)),Foral ([2]; p.o. (lipid-based)),Foral ([2]; p.o. (lipid-free)),cell growth inhibition by BEX in conjunction with RA (DOHH2 cells),solubility at 72 h [3],difference in affinity for artificial emulsion versus natural human CM (human chylomicrons (CM))
"C=C(c1ccc(C(=O)O)cc1)c1cc2c(cc1C)C(C)(C)CCC2(C)C [BEX, bexarotene]",lower than those in plasma,significantly and synergistically inhibited,6620 ± 1310 ng·h/mL,5660 ± 1760 ng·h/mL,3.7 ± 1.2 h,4910 ± 1790 ng·h/mL,3 ± 0.7 h,5840 ± 2140 ng·h/mL,1100 ± 432 ng/mL,899 ± 338 ng/mL,30.6 ± 9.5%,26.5 ± 9.6%,significantly and synergistically inhibited,,
C=C(c1ccc(C(=O)OCC(=O)N(CC)CC)cc1)c1cc2c(cc1C)C(C)(C)CCC2(C)C [prodrug 20],,,,,,,,,,,,,,2670 ± 60 µg/mL,significant differences
